Literature values in patent publication US20070208072A1, “Maleate salt of tegaserod and crystalline forms thereof” (priority 2006, published 2007).

Conditions: white to off-white crystalline powder

- solubility in ethanol (ethanol): slightly soluble
- solubility in water (water): very slightly soluble
Compound: CCCCCNC(=N)N/N=C/c1c[nH]c2ccc(OC)cc12.O=C(O)/C=C\C(=O)O [Tegaserod maleate]
